Key:
morningglory = assay: Test Example 4, pre-emergence treatment, herbicidal activity; type: in vivo; details: 20 days; also: ranges in brackets are in %
How it was run: (§1)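 Emulsifiable concentrate of compound in water with spreading agent is sprayed on the soil surface right after seeding (5 liters per are). Following 20 days' greenhouse growth, cut aerial parts are weighed and the percentage of untreated fresh weight is converted to a damage or efficacy rating.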

wild oat = assay: Test Example 1, foliar treatment, herbicidal activity; type: in vivo, Avena fatua; details: 3 weeks; also: ranges in brackets are in %
How it was run: (§2)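 Crops and weeds sown in upland soil, greenhouse-grown 2 weeks, then sprayed on foliage with compound as emulsifiable concentrate in water plus spreading agent at 5 liters per are. Scored 3 weeks later from aerial fresh weight as percent of untreated plants, converted to a rating scale.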

rice plant = assay: Test Example 6, paddy pot perfusion, phytotoxicity to rice plant; type: in vivo; details: 3 weeks, dry weight; also: ranges in brackets are in %
Protocol: (§3) The application of the tetrahydrophthalimides (I) as herbicides will be illustratively shown in the following Examples wherein the phytotoxicity to cultivated plants and the herbicidal activity on weeds were evaluated as follows: the aerial parts of the test plants were cut off and weighed (fresh weight); the percentage of the fresh weight of the treated plant to that of the untreated plant was calculated with the latter fresh weight taken as 100; and the crop damage and the herbicidal activity were evaluated by the standard given in the table below. The rating values of phytotoxicity, 0 and 1, and those of herbicidal effect, 5 and 4, are generally regarded as satisfactory to protect cultivated plants and control weeds, respectively. The rating values in the paddy field test alone were calculated from the dry weight of the test plants.
(§4) Wagner's pots (1/5000 are) were filled with paddy field soil containing the seeds of broad-leaved weeds (e.g. monochoria, false pimpernel, toothcup) and the seeds of barnyardgrass and hardstem bulrush, and water was poured therein until the depth of water became 4 cm. Rice seedlings of the 3.5-leaf stage and the tubers of arrowhead were transplanted therein and grown for 2 days in a greenhouse. A designed amount of the test compound formulated in an emulsifiable concentrate according to Preparation Example 2 was applied to the pots by perfusion. Thereafter, the test plants were grown for an additional 3 weeks in the greenhouse, and herbicidal activity and phytotoxicity were examined. In this treatment, the emulsifiable concentrate was dispersed in water for application at a perfusion volume of 10 liters per are.

velvetleaf [1] = assay: Test Example 3, soil surface spraying, herbicidal activity; type: in vivo, Abutilon theophrasti; details: 20 days; also: ranges in brackets are in %
How it was run: (§5)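 Crop and weed seeds sown in upland soil; wettable-powder formulation sprayed over the soil surface pre-emergence at 5 liters per are. Plants kept 20 days in greenhouse, then aerial fresh weight expressed as % of untreated and converted to damage/activity rating scores.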

hardstem bulrush = assay: Test Example 6, paddy pot perfusion, herbicidal activity; type: in vivo, Scirpus juncoides; details: 3 weeks, dry weight; also: ranges in brackets are in %
Protocol: as §3, §4

green foxtail = assay: Test Example 5, spraying over the top, herbicidal activity; type: in vivo, Setaria viridis; details: sprayed over the top, 20 days; also: ranges in brackets are in %
Protocol: as §3
(§6) Plastic trays (35 cm×25 cm×15 cm) were filled with upland field soil, and the seeds of tall morningglory, velvetleaf, jimsonweed, sicklepod, hemp sesbania, prickly side, Johnsongrass, green foxtail and large crabgrass and the seeds of soybean were sown therein. A designed amount of the test compound formulated into a wettable powder according to Preparation Example 1 and dispersed in water was sprayed over the top by means of a small hand sprayer at a spray volume of 5 liters per are. After the spraying, the test plants were grown in greenhouse for 20 days, and phytotoxicity and herbicidal activity were examined.

large crabgrass = assay: as above; type: in vivo, Digitaria sanguinalis; details: sprayed over the top, 20 days; also: ranges in brackets are in %
Protocol: as §3, §6

common purslane = assay: Test Example 2, field foliar treatment, herbicidal activity; type: in vivo, Portulaca oleracea; details: 3 weeks; also: ranges in brackets are in %
Protocol: as §3
(§7) Seeds of corn and broad-leaved weeds such as cocklebur, common purslane and tall morningglory were sown in the field as previously laid up in ridges, each ridge having an upper width of 1 m. At the time when the corn grew up to the 6-leaf stage and the broad-leaved weeds up to 2 to 5-leaf stages, a designed amount of the test compound formulated into an emulsifiable concentrate according to Preparation Example 2 and dispersed in water was sprayed to the foliage of the test plants with three replications over the top by means of a small hand sprayer at a spray volume of 5 liters per are. After cultivation for 3 weeks, herbicidal activity and phytotoxicity were examined.

velvetleaf [2] = assay: Test Example 4, pre-emergence treatment, herbicidal activity; type: in vivo, Abutilon theophrasti; details: 20 days; also: ranges in brackets are in %
How it was run: as §1

cocklebur = assay: Test Example 2, field foliar treatment, herbicidal activity; type: in vivo, Xanthium pennsylvanicum; details: 3 weeks; also: ranges in brackets are in %
Protocol: as §3, §7

corn [3] = assay: Test Example 1, foliar treatment, phytotoxicity to corn; type: in vivo; details: 3 weeks; also: ranges in brackets are in %
How it was run: as §2

Johnsongrass = assay: Test Example 5, spraying over the top, herbicidal activity; type: in vivo, Sorghum halepense; details: sprayed over the top, 20 days; also: ranges in brackets are in %
Protocol: as §3, §6

wild mustard = assay: Test Example 1, foliar treatment, herbicidal activity; type: in vivo, Brassica kaber; details: 3 weeks
How it was run: as §2

hemp sesbania = assay: Test Example 5, spraying over the top, herbicidal activity; type: in vivo, Sesbania exaltator; details: sprayed over the top, 20 days; also: ranges in brackets are in %
Protocol: as §3, §6

velvetleaf [4] = assay: as above; type: in vivo, Abutilon theophrasti; details: sprayed over the top, 20 days
Protocol: as §3, §6

soybean = assay: Test Example 5, spraying over the top, phytotoxicity to soybean; type: in vivo; details: sprayed over the top, 20 days; also: ranges in brackets are in %
Protocol: as §3, §6

velvetleaf [5] = assay: Test Example 1, foliar treatment, herbicidal activity; type: in vivo, Abutilon theophrasti; details: 3 weeks; also: ranges in brackets are in %
How it was run: as §2

prickly sida = assay: Test Example 5, spraying over the top, herbicidal activity; type: in vivo, Sida spinosa; details: sprayed over the top, 20 days; also: ranges in brackets are in %
Protocol: as §3, §6

corn [6] = assay: Test Example 3, soil surface spraying, phytotoxicity to corn; type: in vivo; details: 20 days; also: ranges in brackets are in %
How it was run: as §5

tall morningglory = assay: Test Example 5, spraying over the top, herbicidal activity; type: in vivo, Ipomoea purpurea; details: sprayed over the top, 20 days; also: ranges in brackets are in %
Protocol: as §3, §6
For Herbicidal activity, Velvetleaf in this document: ranges in brackets are in %.

SMILES	Herbicidal activity, Wild cat (wild oat; 1.25 g/are)	Herbicidal activity, Wild cat (wild oat; 5 g/are)	Phytotoxicity, Rice plant (rice plant; 1.25 g/are)	Phytotoxicity, Rice plant (rice plant; 2.5 g/are)	Herbicidal activity, Velvetleaf (velvetleaf [1]; 5 g/are)	Herbicidal activity, Velvetleaf (velvetleaf [1]; 10 g/are)	Herbicidal activity, Hardstem bulrush (hardstem bulrush; 1.25 g/are)	Herbicidal activity, Hardstem bulrush (hardstem bulrush; 2.5 g/are)	Herbicidal activity, Green foxtail (green foxtail; 10 g/are)	Herbicidal activity, Green foxtail (green foxtail; 20 g/are)	Herbicidal activity, Large crabgrass (large crabgrass; 10 g/are)	Herbicidal activity, Large crabgrass (large crabgrass; 20 g/are)	Herbicidal activity, Common purslane (common purslane; 0.63 g/are)	Herbicidal activity, Common purslane (common purslane; 1.25 g/are)	Herbicidal activity, Cocklebur (cocklebur; 0.63 g/are)	Herbicidal activity, Cocklebur (cocklebur; 1.25 g/are)	Phytotoxicity, Corn (corn [3]; 1.25 g/are)	Phytotoxicity, Corn (corn [3]; 5 g/are)	Herbicidal activity, Johnsongrass (Johnsongrass; 10 g/are)	Herbicidal activity, Johnsongrass (Johnsongrass; 20 g/are)	also measured
O=C1C2=C(CCCC2)C(=O)N1c1ccc(Cl)cc1F [A, 2-fluoro-4-chlorophenyltetrahydrophthalimide, reference compound]	0 (61-100)	1 (41-60)	0 (100)	1 (90-99)	3 (11-20)	4 (1-10)	2 (21-40)	3 (11-20)	5 (0)	5 (0)	5 (0)	5 (0)	2 (21-40)	3 (11-20)	1 (41-60)	4 (1-10)	1 (90-99)	2 (80-89)	4 (1-10)	5 (0)	Herbicidal activity, Morningglory (morningglory; 2.5 g/are): 1 (41-60); Herbicidal activity, Morningglory (morningglory; 10 g/are): 2 (21-40); Herbicidal activity, Velvetleaf (velvetleaf [2]; 2.5 g/are): 4 (1-10); Herbicidal activity, Velvetleaf (velvetleaf [2]; 10 g/are): 5 (0); Herbicidal activity, Wild mustard (wild mustard; 1.25 g/are): 3 (11-20); Herbicidal activity, Wild mustard (wild mustard; 5 g/are): 5 (0); Herbicidal activity, Hemp sesbania (hemp sesbania; 10 g/are): 3 (11-20); Herbicidal activity, Hemp sesbania (hemp sesbania; 20 g/are): 5 (0); Herbicidal activity, Velvetleaf (velvetleaf [4]; 10 g/are): 5 (0); Herbicidal activity, Velvetleaf (velvetleaf [4]; 20 g/are): 5 (0); Phytotoxicity, Soybean (soybean; 10 g/are): 1 (90-99); Phytotoxicity, Soybean (soybean; 20 g/are): 2 (80-89); Herbicidal activity, Velvetleaf (velvetleaf [5]; 1.25 g/are): 5 (0); Herbicidal activity, Velvetleaf (velvetleaf [5]; 5 g/are): 5 (0); Herbicidal activity, Prickly sida (prickly sida; 10 g/are): 5 (0); Herbicidal activity, Prickly sida (prickly sida; 20 g/are): 5 (0); Phytotoxicity, Corn (corn [6]; 5 g/are): 2 (80-89); Phytotoxicity, Corn (corn [6]; 10 g/are): 3 (60-79); Herbicidal activity, Tall morningglory (tall morningglory; 10 g/are): 0 (61-100); Herbicidal activity, Tall morningglory (tall morningglory; 20 g/are): 1 (41-60)
CC(C)Oc1cc(N2C(=O)C3=C(CCCC3)C2=O)c(Cl)cc1Cl [B, 2,4-dichloro-5-isopropoxyphenyltetrahydrophthalimide, reference compound]	0 (61-100)	1 (41-60)	0 (100)	0 (100)	1 (41-60)	3 (11-20)	1 (41-60)	2 (21-40)	3 (11-20)	4 (1-10)	3 (11-20)	4 (1-10)	3 (11-20)	4 (1-10)	2 (21-40)	4 (1-10)	0 (100)	1 (90-99)	2 (21-40)	3 (11-20)	Herbicidal activity, Morningglory (morningglory; 5 g/are): 0 (61-100); Herbicidal activity, Morningglory (morningglory; 20 g/are): 1 (41-60); Herbicidal activity, Velvetleaf (velvetleaf [2]; 5 g/are): 1 (41-60); Herbicidal activity, Velvetleaf (velvetleaf [2]; 20 g/are): 3 (11-20); Herbicidal activity, Wild mustard (wild mustard; 1.25 g/are): 2 (21-40); Herbicidal activity, Wild mustard (wild mustard; 5 g/are): 3 (11-20); Herbicidal activity, Hemp sesbania (hemp sesbania; 10 g/are): 1 (41-60); Herbicidal activity, Hemp sesbania (hemp sesbania; 20 g/are): 2 (21-40); Herbicidal activity, Velvetleaf (velvetleaf [4]; 10 g/are): 4 (1-10); Herbicidal activity, Velvetleaf (velvetleaf [4]; 20 g/are): 5 (0); Phytotoxicity, Soybean (soybean; 10 g/are): 0 (100); Phytotoxicity, Soybean (soybean; 20 g/are): 0 (100); Herbicidal activity, Velvetleaf (velvetleaf [5]; 1.25 g/are): 5 (0); Herbicidal activity, Velvetleaf (velvetleaf [5]; 5 g/are): 5 (0); Herbicidal activity, Prickly sida (prickly sida; 10 g/are): 3 (11-20); Herbicidal activity, Prickly sida (prickly sida; 20 g/are): 4 (1-10); Phytotoxicity, Corn (corn [6]; 5 g/are): 0 (100); Phytotoxicity, Corn (corn [6]; 10 g/are): 0 (100); Herbicidal activity, Tall morningglory (tall morningglory; 10 g/are): 0 (61-100); Herbicidal activity, Tall morningglory (tall morningglory; 20 g/are): 0 (61-100)
